Measured values as given in patent US10202412B2, “β-D-2′-deoxy-2′-substituted-4′-substituted-2-substituted-N6-substituted-6-aminopurinenucleotides for the treatment of paramyxovirus and orthomyxovirus infections” (Atea Pharmaceuticals, Inc., priority 2016, dated 2019).

Tests used:
[1] = system: Respiratory syncytial virus (RSV) type A, strain A2 (ATCC VR-1540); experiment: dNHBE assay: RSV virus yield reduction (EC90); assay type: cell-based; conditions: RSV (A2) in dNHBE cells, concentration reducing virus yield by 1 log10, mean of at least two experiments
Experimental: (§1) Differentiated normal human bronchial epithelial (dNHBE) cells were grown on 6 mm mesh disks in transwell inserts to approximately 1.2×10^6 cells/disk and disks were transferred to individual wells of a 6-well plate. 1 mL of proprietary culture medium was added to the basolateral side of the cells and the apical side was exposed to a humidified 95% air/5% CO2 environment. Cells were cultured at 37° C. for one day and then the mucin layer was removed from the apical side of the cells by repeated (3×) washing with 500 μL 30 mM HEPES buffered saline solution and culture medium on the basal side was replenished.
Respiratory syncytial virus (RSV) type A, strain A2 (ATCC VR-1540), previously passaged in MA-104 cells to make working stock cultures, was diluted 1/10 in medium before infection, using a multiplicity of infection (MOI) of ≤0.03 CCID50 per cell.
(§2) Various concentrations of test compounds in medium were applied in duplicate to the apical (140 μL) and basal sides (1 mL) for a 1 hour pre-treatment, followed by addition of 140 μL of virus inoculum to each cell insert on the apical side. The viral inoculum and treatments were removed after 2 hours. Control cells were treated with placebo (culture medium only). Following infection, the apical medium was removed and the basal side was replaced with fresh compound in medium. The cells were maintained at the air-liquid interface, and cell culture medium on the basal side was replaced daily with fresh medium containing test compound. After 4 days, the liquid was removed from the basal side and discarded and virus released into the apical compartment was harvested by the addition of 500 μL of culture medium. The medium was thoroughly mixed, then removed, diluted 1:1 with 40% sucrose and stored at ≤−80° C.
To determine the virus titer from each treated cell culture, MA-104 cells were seeded in 96-well plates and grown overnight (37° C.) to confluence. Samples containing virus were diluted in 10-fold increments in infection medium and 200 μL of each dilution transferred into respective wells of a 96-well microtiter plate. Four microwells were used for each dilution to determine 50% viral endpoints. After 7 days of incubation, each well was scored positive for virus if any cytopathic effect was observed as compared with the uninfected control. The virus dose that was able to infect 50% of the cell cultures (CCID50 per 0.1 mL) was calculated by the Reed-Muench method. This was repeated in duplicate for each test sample, so that values reported are an average of 2 independent CCID5o determinations. Untreated, uninfected cell controls were tested as negative controls. Statistical differences in the titers were evaluated with a one-way analysis of variance (ANOVA) followed by Dunnett's multiple comparisons test compared with the untreated virus controls.
(§3) Concentrations of test compounds that reduced virus yield by 1 log10 (90% effective concentration; EC90) were calculated by regression analysis. The reported EC90 value is the mean of at least two experiments. Potential toxicity of the test compounds was evaluated microscopically.

[2] = system: Differentiated normal human bronchial epithelial (dNHBE) cells; experiment: dNHBE assay: toxicity evaluated microscopically; assay type: cell-based; set-up: unit not given here
Experimental: as §1, §2, §3

[3] = system: respiratory syncytial virus A2 (ATCC VR-1540); experiment: Cytopathic effect assay with RSV A2 in MA-104 cells; assay type: cell-based; conditions: human respiratory syncytial virus, MA104, CPE inhibition, neutral red
Experimental: (§4) Test compounds were dissolved in DMSO and then prepared in eight half-log dilutions in MEM medium with 50 μg/mL gentamicin and 2% FBS (MA-104 cells only). Each dilution was added to 5 wells of a 96-well plate with 80-100% confluent cells (either MA-104 cells or HEp-2 cells). Three wells of each dilution were infected with respiratory syncytial virus A2 (ATCC VR-1540) and two wells remained uninfected as toxicity controls. After maximum cytopathic effect (CPE) was observed microscopically in untreated virus control wells, plates were stained with neutral red dye for approximately 2 hours, then supernatant dye was removed and the incorporated dye was extracted in 50:50 Sorensen citrate buffer/ethanol and read on a spectrophotometer. Optical density values were normalized based on cell and virus controls, then the concentration of test compound required to inhibit CPE by 50% (EC50) was calculated by regression analysis. The reported EC50 value is the mean of at least two experiments. The concentration of compound that caused 50% CPE in the absence of virus was similarly calculated to determine cytotoxicity (CC50).

[4] = system: respiratory syncytial virus A2 (ATCC VR-1540); experiment: Cytopathic effect assay with RSV A2 in HEp-2 cells; assay type: cell-based; conditions: human respiratory syncytial virus; RSV in HEp-2 cells, CPE inhibition, neutral red
Experimental: as §4

HEp-2 cells = experiment: Cytotoxicity in uninfected HEp-2 cells, neutral red; assay type: cell-based; set-up: unit not given here; conditions: absence of virus
Experimental: as §4

[5] = Hamster lung triphosphate assay; assay type: in vivo, Golden Syrian hamsters; conditions: analog triphosphate in hamster lung tissue 72 h after oral target dose of 50 mg/kg in PEG400
Experimental: Male Golden Syrian hamsters (n=3 per test compound) were fasted overnight and then administered test compounds in PEG400 at a target dose of 50 mg/kg by oral gavage. Food was returned 4 h after dosing. At 72 h post dose, animals were anesthetized and a sample of lung tissue was removed and flash-frozen in liquid nitrogen. Approximately 0.5 g of frozen tissue was homogenized using a Polytron homogenizer in 5 volumes homogenization solution (MeOH:50% aqueous KOH:268 mM EDTA, pH 8, 1750:5:750, v/v) in a dry ice/ethanol bath. Supernatants were prepared by centrifugation and analyzed by LC-MS/MS for concentrations of the corresponding analog triphosphates. See Table 7 below for the 72 hour lung triphosphate concentration. After 72 hours, the lung triphosphate concentration following administration of Compound AB and Compound AC was greater than 800 ng/g.

[6] = system: human bone marrow progenitor cells (BFU-E); experiment: Human bone marrow progenitor cell assay, BFU-E; assay type: cell-based; conditions: Homo sapiens, 336 h; BFU-E-specific culture, 14-day incubation, colony counts; read-out: Bone Marrow Stem Cell IC50 BFU-E
Experimental: (§5) Select compounds were tested in an in vitro selectivity study with human bone marrow progenitor cells. Fresh human bone marrow progenitor cells (Invitrogen) suspended in either BFU-E or GM-CSF-specific culture medium were added, at 10^5 cells/well, to triplicate serial dilutions of TA in 6-well plates. After 14-day incubations, colony counts were used to determine […] values. BFU-E colonies were confirmed using the benzidene technique. No cytotoxicity was observed from any of the tested compounds.

[7] = system: human bone marrow progenitor cells (CFU-GM); experiment: Human bone marrow progenitor cell assay, CFU-GM (GM-CSF-specific culture); assay type: cell-based; conditions: Homo sapiens, CFU-GM, 336 h, 14-day incubation, colony counts, read-out: Bone Marrow Stem Cell IC50 CFU-GM
Experimental: as §5

iPS cardiomyocytes = experiment: iPS cardiomyocyte assay (XTT viability); assay type: cell-based; conditions: 72 h, 3 days incubation, XTT staining
Experimental: Select compounds were tested in an in vitro selectivity study with iPS cardiomyocytes. iPS cardiomyocytes (Cellular Dynamics) were seeded in microliter plates at 1.5×10^4 cells per well. After 48-hr incubation, cells were washed and maintenance medium containing 30 serially diluted TA was added in triplicate. After incubating for an additional 3 days, cellviability was measured by staining with XTT and CC50 values were calculated. No cytotoxicity was observed from any of the tested compounds.

[8] = human respiratory syncytial virus

SMILES	EC90 [1, 8]	Visual toxicity [2]	EC50 [3]	EC50 [4]	TC50 (HEp-2 cells)	EC90 [1]	72 h Lung TP Concentration [5]	IC50 [6]	IC50 [7]	IC50 (iPS cardiomyocytes)
Nc1ccn([C@@H]2O[C@@](CO)(CCl)C(O)[C@H]2F)c(=O)n1 (stereo in doubt) [W]	0.58 µM	>338	9.6 µM	0.6 µM	>100					
CC(C)OC(=O)[C@H](C)N[P@](=O)(OC[C@@]1(C)O[C@@H](n2cnc3c(N(C)C)nc(NC(=O)C(C)C)nc32)[C@H](F)[C@@H]1O)Oc1ccccc1 [AO, (S)-Isopropyl 2-(((S)-(((2R,3R,4R,5R)-5-(6-(dimethylamino)-2-isobutyramido-9H-purin-9-yl)-4-fluoro-3-hydroxy-2-methyltetrahydrofuran-2-yl)methoxy)(phenoxy)phosphoryl)amino) propanoate]		>1.5				0.096 µM	108 ng/g			
CNc1nc(F)nc2c1ncn2[C@@H]1O[C@](CCl)(CO[P@@](=O)(N[C@@H](C)C(=O)OC(C)C)Oc2ccccc2)[C@@H](O)[C@@H]1F [AQ, (S)-Isopropyl 2-(((S)-(((2R,3R,4S,5R)-5-(6-(methylamino)-2-fluoro-9H-purin-9-yl)-2-(chloromethyl)-4-fluoro-3-hydroxytetrahydrofuran-2-yl)methoxy)(phenoxy)phosphoryl)amino) propanoate]	0.18 µM	>1.6						> 100 µM	> 100 µM	> 100 µM
CNc1nc(N)nc2c1ncn2[C@@H]1O[C@](C)(CO[P@@](=O)(N[C@@H](C)C(=O)OC(C)C)Oc2ccccc2)[C@@H](O)[C@H]1F [Compound AB, (S)-Isopropyl 2-(((S)-(((2R,3R,4R,5R)-5-(2-amino-6-(methylamino)-9H-purin-9-yl)-4-fluoro-3-hydroxy-2-methyltetrahydrofuran-2-yl)methoxy)(phenoxy)phosphoryl)amino) propanoate]		>17				0.052 µM		> 100 µM	> 100 µM	> 100 µM
CNc1nc(N)nc2c1ncn2[C@@H]1O[C@](C)(CO)[C@@H](O)[C@H]1F [Compound C, (2R,3R,4R,5R)-5-(2-Amino-6-(methylamino)-9H-purin-9-yl)-4-fluoro-2-(hydroxymethyl)-2-methyltetrahydrofuran-3-ol]	3.2 µM	>320		> 100 µM	>100					
CNc1nc(N)nc2c1ncn2[C@@H]1O[C@](C)(COP(=O)(N[C@@H](C)C(=O)OC(C)C)Oc2ccccc2)[C@@H](O)[C@H]1F (stereo partly drawn) [Compound D]	1.7 µM	>172		> 100 µM	>100					
CC[C@]1(CO)O[C@@H](n2cnc3c(N(C)C)nc(N)nc32)[C@H](F)[C@@H]1O [Compound O, (2R,3R,4R,5R)-5-(2-Amino-6-(dimethylamino)-9H-purin-9-yl)-2-ethyl-4-fluoro-2-(hydroxymethyl)tetrahydrofuran-3-ol]	> 293 µM	>293	> 293 µM	> 100 µM	>100					
CC[C@]1(COP(=O)(N[C@@H](C)C(=O)OC(C)C)Oc2ccccc2)O[C@@H](n2cnc3c(N(C)C)nc(N)nc32)[C@H](F)[C@@H]1O (stereo partly drawn) [Compound P, (2S)-Isopropyl 2-(((((2R,3R,4R,5R)-5-(2-amino-6-(dimethylamino)-9H-purin-9-yl)-2-ethyl-4-fluoro-3-hydroxytetrahydrofuran-2-yl)methoxy)(phenoxy)-phosphoryl)amino) propanoate]	88.6 µM	>143	> 164 µM	> 100 µM	>100					
